One assay deals with EAC cell line OE33. The assay can be described thus: 5AzaC treatment of EAC cell line OE33; qMSP and real-time RT-PCR for Reprimo. In kind it is cell-based. The following applies: 1 μl of 5 mM 5AzaC per ml of cells every 24 hours for 6 days, harvested day 0, 2, 4, 6. As for the experimental part:
(§1) DNA methylation of Reprimo was determined by qMSP using the ABI 7700 Taqman system (Eads C. A. et al., (2001)). MSP distinguishes methylated alleles of a given gene based on DNA sequence alterations after bisulfite treatment of DNA. Bisulfite treatment converts unmethylated but not methylated cytosines to uracils. Subsequent PCR using primers and probe specific to the corresponding methylated DNA sequence is then performed. (Eads C. A. et al., (2001)).
(§2) The normalized MSP value (NMV) was calculated by dividing the ratio of the qMSP value for Reprimo to β-actin for each sample by the ratio of the qMSP value for Reprimo to, β-actin for Universal Methylated DNA (See Sato F. et al., Cancer Res., 62:6820-6822 (2002) and Shibata, D. M., et al., Cancer Res., 62:5637-5640 (2002)). Qualitative MSP status was determined by analyzing the normalized MSP value. A normalized MSP value of 0.05 was assigned as the cutoff point for classifying methylation status as qualitatively positive (≧0.05) or negative (<0.05). This cutoff point had been previously determined by ROC curve analysis (See Shibata, D. M., et al., (2002)).
(§3) This treatment protocol has been published previously (Shibata, D. M., et al., Cancer Res., 62:5637-5640 (2002)). […]

Another assay concerns ESCC cell line KYSE 110. The assay can be described thus: 5AzaC treatment of ESCC cell line KYSE 110; qMSP and real-time RT-PCR for Reprimo. Type of assay: cell-based. The note with it: 1 μl of 5 mM 5AzaC per ml of cells every 24 hours for 6 days, harvested day 0, 2, 4, 6. As for the experimental part: as §1, §2, §3

Consider one compound from patent US20080299566A1, “Methylation of Gene Promoters as a Predictor of Effectiveness of Therapy” (priority 2006, published 2008).

In the case of `Nc1ncn([C@H]2C[C@H](O)[C@@H](CO)O2)c(=O)n1` [5AzaC, 5-Aza-2′-Deoxycytidine], in the assay with EAC cell line OE33, the “Reprimo mRNA expression” value is “increased Reprimo mRNA expression” and the “Reprimo methylation (qMSP)” value is on record as “reduction in Reprimo methylation”. In addition, in the assay with ESCC cell line KYSE 110, the “Reprimo mRNA expression” value is recorded as “increased Reprimo mRNA expression” and the “Reprimo methylation (qMSP)” value was “reduction in Reprimo methylation”.
